Laboratory results as given in patent US20110160266A1, “Novel Anti-Arrhythmia Agent” (THE UAB RESEARCH FOUNDATION, priority 2008, published 2011).
Counter-ions that a name gives are not always drawn. Marks after values point to notes of the source that are not given here.

Legend:
[1] = test system: right ventricular muscle strips and right ventricular papillary muscles; assay: Ventricular muscle model of SMA; set-up: species or system rats; details: added to the superfusate in appropriate amounts; paced at 0.5 Hz
Description: To further establish this model as a general test for arrhythmic and anti-arrhythmic agents, right ventricular muscle strips and right ventricular papillary muscles were isolated from anesthetized rats using methods known to persons skilled in the art. These muscles were then superfused as described above and paced at 0.5 Hz.

rat left atria [2] = details: 25 nM ATX II
rat right atria = assay: Right atrial spontaneous contraction frequency
Procedure: (§1) Left atria (n=9) were paced at 0.1 Hz, treated with 300 nM BayK 8644 for 5 min, then with 20 μM 2-APB for 10 min, and the pacing stimulus was stopped. These preparations then were incubated with six increasing concentrations of zatebradine (10-100 μM) for 3-5 min at each concentration, and rates of SMA were recorded. Untreated right atria (n=9) also were titrated with zatebradine and its effect on contraction frequency was recorded.
(§2) To test whether zatebradine affects the SMA occurring in the presence of 2-APB and isoproterenol, left atria (n=7) were paced at 0.1 Hz, treated with 30 nM isoproterenol for 5 min, then with 20 μM 2-APB for 10 min, and the pacing stimulus was stopped. Rates of SMA were recorded, these left atria were exposed to 70 μM zatebradine for 10 min, and rates of SMA were recorded again. A group of right atria (n=7) also were exposed to 30 nM isoproterenol for 5 min and then to 70 μM zatebradine for 10 min. Right atrial contraction frequency was recorded at these two times.
(§3) To test whether ZD-7288, an If inhibitor structurally unrelated to zatebradine (Baruscotti et al., 2005; Sanders et al., 2006) affects the SMA occurring in the presence of 2-APB and BayK 8644, rat left atria (n=7) were treated with 300 nM BayK 8644 for 5 min, then with 20 μM 2-APB for 10 min, and the rates of ectopic activity were recorded. These atria then were incubated with six increasing concentrations of ZD-7288 (10-100 μM) for 3-5 min at each concentration, and the rates of SMA were recorded. Right atria (n=7) were titrated similarly with ZD-7288 (0-100 μM) and the change in their contraction frequency was recorded.

rat left atria [3] = assay: Suppression of STA induced by 2-APB plus BayK 8644 or isoproterenol in left atria; details: for effect on STA initiated by BayK 8644 and 2-APB: 300 nM BayK 8644 + 20 μM 2-APB, zatebradine 70 μM, ZD-7288 10-100 μM, SKF-96365 about 10-70 μM
Procedure: 3 Hz-paced left atria (n=9 per group) were superfused (i) in Krebs-Henseleit alone or (ii) they were treated with 20 μM 2-APB for 10 min, (iii) with 300 nM BayK 8644 for 10 min and with 20 μM 2-APB for 10 min, or (iv) they were treated with 300 nM BayK 8644 and 20 μM 2-APB for 10 min, then with 70 μM zatebradine (3-[3-[[2-(3,4-Dimethoxyphenyl)ethyl]methyl amino]propyl]-1,3,4,5-tetrahydro-7,8,-dimethoxy-2H-3-benzazepin-2-one hydrochloride) for 10 min (Baruscotti et al., 2005). Pacing was interrupted at these times and rates of SMA were recorded.
as §1
To test whether zatebradine affects left atrial force of contraction, two groups of left atria (n=9 per group) were paced at 3 Hz and treated with 300 nM BayK 8644. Five minutes later one group was incubated with six increasing concentrations of zatebradine (10-100 μM) for 3-5 min at each concentration, and forces of contraction were recorded. A second group was treated with BayK 8644 but not zatebradine, and forces of contraction were recorded at corresponding times.
as §2, §3
In these experiments, a 2-APB model system was used to simulate tachycardic abnormal automaticity. Specifically, superfused left atria were treated sequentially with 300 nM BayK 8644, an activator of voltage-dependent calcium entry, which loads myocytes with calcium, and then with 2-APB (20 μM) to activate the putative myocyte system for abnormal automaticity. […] SKF-96365 (10 μM) was added to the superfusate. SKF-96365 reversed STA in these left atria within 2-3 min and the muscle became quiescent in the absence of pacing (FIG. 34, “Rest”).
Additional experiments determined the concentration-dependence of SKF-96365 inhibition of STA. These experiments were performed as described above except that various concentrations of SKF-96365 were added to the left atrial superfusate (about 10-70 μM). Exposing left atria to various concentrations of SKF-96365 reversed STA (FIG. 35).

isolated rat left atria = assay: Pharmacological activation of spontaneous tachycardic activity (STA): calcium-loading agents with or without 2-APB
Procedure: Male Sprague-Dawley rats (325-400 g) were anesthetized with intra-peritoneal pentobarbital (0.1 g/kg). Their right and left atria were isolated, superfused at 30° C. in Krebs-Henseleit buffer, and nearly isometric forces of contraction were measured from these muscles (Wolkowicz et al., 2002). 2-APB was prepared as a 150 mM dimethyl sulfoxide stock.
Left atria (n=8 per group) were paced at 3 Hz and (i) titrated with 0 to 30 nM isoproterenol (Ahlquist, 1970) or (ii) exposed to 3 μM forskolin (Laurenza et al., 1980). Left atrial force and frequency of contraction, the time to peak tension and relaxation times were recorded after a 3-5 min exposure to forskolin or to any concentration of isoproterenol. The 3 Hz pacing stimulus was interrupted at the end of these protocols to measure SMA. […]
Left atrial contraction and relaxation times were recorded at these five times, the pacing stimulus was stopped and rates of SMA were recorded. […] Atrial mechanical function was measured at these four times; the pacing stimulus then was stopped and rates of SMA were recorded.
Left atria (n=6 per group) were paced at 3 Hz, titrated with 0 to 300 nM (−)BayK 8644 ([…]-1,4-Dihydro-2,6-dimethyl-5-nitro-4-[2-(trifluormethyl)phenyl]-3-pyridinecarboxylic acid methyl ester; Franckowiak et al. 1985) or FPL-64176 (2,5-Dimethyl-4-[2-(phenylmethyl)benzoyl]-1H-pyrrole-3-carboxlic acid methyl ester); Zheng et al., 1991) and their mechanical function and rates of SMA were recorded after a 5 min exposure to any concentration of slow calcium channel activator.
Atrial mechanical function was recorded at this time; the pacing stimulus then was stopped and rates of SMA were recorded. […]
Left atria (n=7) were paced at 3 Hz, treated with 120 μM ouabain (Illanes and Marshall, 1964), and any change in mechanical function was recorded at a new steady state, ˜10 min later. […]

rat left atria [4] = assay: Reversal or prevention of 2-APB-induced SMA in superfused rat left atria; details: titration after appearance of SMA, absence of pacing
Procedure: (A) Titration curve of ranolazine reversal of SMA in superfused left atrial appendage. Superfused appendages (n=7) were treated with 2-APB and following the appearance of SMA they were titrated with increasing concentrations of ranolazine for 3-5 min at any concentration. Rates of SMA in the absence of pacing were recorded. (B) Typical raw mechanical data for an appendage treated with 2-APB and then with 0, 10 or 80 μM ranolazine. All data are in the absence of pacing. […]
To test whether an anion transport inhibitor affected SMA, atria (n=7) were paced at 0.1 Hz in KH and exposed to 15 μM 2-APB. Following the appearance of SMA, they were titrated with 100 to 400 μM DIDS for 3 to 5 min at each concentration. Whether SMA occurred at the end of each titration period was recorded.
In these experiments, a 2-APB model system was used to simulate abnormal automaticity. Specifically, paced (0.1 Hz) superfused left atria were treated with 2-APB (20 μM) and the pacing stimulus was stopped after the appearance of SMA. SKF-96365 (25 μM) was then added to the superfusate and the effect on SMA was measured.
Additional experiments determined the concentration-dependence of SKF-96365 inhibtion of SMA. These experiments were performed as described above except that various concentrations of SKF-96365 were added to the left atrial superfusate (about 10-65 μM).
In these experiments, a 2-APB model system was used to simulate abnormal automaticity. Specifically, superfused left atria were exposed to 0 or to 50 μM SKF-96365 for 10 min. Following this pre-incubation, muscles were titrated with increasing concentrations of 2-APB (0-30 μM) and the rate of SMA was measured about 10 min later in the absence of pacing.

[5] = agent without 2-APB, at the concentration given

c1ccc(B(OB(c2ccccc2)c2ccccc2)c2ccccc2)cc1 [DPBA, diphenyl boronic anhydride]
induction of ventricular SMA [1]: ventricular SMA was observed

COc1ccc(CCN(C)CCCC(C#N)(c2ccc(OC)c(OC)c2)C(C)C)cc1OC (stereo not shown) [verapamil]
triggered events after exposure to verapamil (rat left atria [2]; 10 μM verapamil for 5 min, expanded scale): continued presence of triggered events
effect on left atrial force of contraction / mechanical performance (titration) (rat left atria [2]; 1 Hz-paced, ~5 min at each concentration): markedly decreased contractile force
effect on the rate of triggered activity (titration) (rat left atria [2]; verapamil 2 to 20 μM, ~5 min at each concentration): did not affect the rate of triggered activity

COc1ccc(CCN(C)CCCN2CCc3cc(OC)c(OC)cc3CC2=O)cc1OC [zatebradine, 3-[3-[[2-(3,4-Dimethoxyphenyl)ethyl]methylamino]propyl]-1,3,4,5-tetrahydro-7,8,-dimethoxy-2H-3-benzazepin-2-one hydrochloride]
right atrial contraction frequency (rat right atria; 30 nM isoproterenol, then 70 μM zatebradine for 10 min): 212±9.7 contractions/min
IC50 (rat right atria; Rattus norvegicus, untreated right atria titrated with zatebradine, read-out: IC50 for decrease of right atrial contraction frequency): 12 ± 1.1 µM
maximum decrease of right atrial contraction frequency (rat right atria; zatebradine titration): ~50%
effect on STA initiated by BayK 8644 and 2-APB (rat left atria [3]): significantly decreases
effect on left atrial force of contraction (rat left atria [3]; 300 nM BayK 8644, 10-100 μM zatebradine): does not affect left atrial force of contraction
left atrial force of contraction, % of initial force (rat left atria [3]; 3 Hz-paced, 300 nM BayK 8644, titrated with 10-100 μM zatebradine): 95±3.8 % of initial force
IC50 (rat left atria [3]; Rattus norvegicus, intact left atria exposed to BayK 8644 and 2-APB, linear decrease): 58 ± 5 µM
rate of appendage STA with zatebradine (rat left atria [3]; isoproterenol + 2-APB + 70 μM zatebradine for 10 min): 110±24.5 contractions/min

CC(C)NCC(O)c1ccc(O)c(O)c1 (stereo not shown) [isoproterenol]
right atrial contraction frequency (rat right atria; 30 nM isoproterenol for 5 min): 276±11.4 contractions/min
rate of spontaneous tachycardic activity in the absence of pacing (isolated rat left atria; 22 μM 2-APB-treated appendage plus 30 nM isoproterenol, 30° C.): ~230 contractions/min
ectopic activity / mechanical stability without 2-APB (isolated rat left atria; [5]): does not produce ectopic activity
effect on left atrial force of contraction (isolated rat left atria; [5]): increases their force of contraction
T0.5R (time to 50% relaxation) (isolated rat left atria; concentrations per footnote): 29.3^‡ msc
T0.9R (time to 90% relaxation) (isolated rat left atria; concentrations per footnote): 58.7^‡ msc
TPT (time to peak tension) (isolated rat left atria; concentrations per footnote): 45.0^‡ msc
Force Post (isolated rat left atria; mg force per g atrial wet weight following a 10 min exposure to the agent): 104* mg/gww
Force Pre (isolated rat left atria; mg force per g atrial wet weight prior to exposure to the agent): 31 mg/gww
SMA Rate (isolated rat left atria; spontaneous atrial mechanical events, concentrations per footnote): 0 SMEs per minute

CCN(c1ccccc1)c1cc(NC)[n+](C)c(C)n1.[Cl-] [ZD-7288]
effect on right atrial contraction frequency (rat right atria; ZD-7288 0-100 μM): decreases right atrial contraction frequency less robustly than zatebradine
effect on STA initiated by BayK 8644 and 2-APB (rat left atria [3]): decreases left atrial STA

COc1ccccc1OCC(O)CN1CCN(CC(=O)Nc2c(C)cccc2C)CC1 (stereo not shown) [ranolazine, N-(2,6-dimethylphenyl)-2-[4-[2-hydroxy-3-(2-methoxyphenoxy)propyl]piperazin-1-yl]acetamide]
effect on 2-APB-induced sporadic ectopic activity (SMA) (rat left atria [4]): prevent the sporadic ectopic activity
effect on 2-APB-induced sporadic ectopic activity (SMA) (rat left atria [4]; listed as Ranolazine): blocks ectopic activity
effect on tachycardic activity with high calcium loads (rat left atria [3]; data not shown): suppresses, but does not completely prevent

Anemonia sulcata Toxin II [ATX II]
induction of triggered activity (contractile doublets) (rat left atria [2]; left atria paced at 1 Hz): triggered activity is induced
